In patent US8685999B2, “Beta carboline sulphonylurea derivatives as EP4 receptor antagonists” (Merck Sharp & Dohme Corp., priority 2008, dated 2014):

What follows are molecules tested against T1, EP4 (Homo sapiens, UniProt P35408) (assay: Prostanoid receptor binding assay (radioligand displacement binding assay)). Details: column marked X when IC50 < 1; read-out: IC50 (nm) X < 1.
T1 construct: expressed in transfected cells; membranes prepared by differential centrifugation
Description: Prostanoid receptor cDNAs corresponding to full length coding sequences are subcloned into the appropriate sites of mammalian expression vectors and transfected into HEK 293(ebna) cells. HEK 293(ebna) cells expressing the individual cDNAs are grown under selection and individual colonies are isolated after 2-3 weeks of growth using the cloning ring method and subsequently expanded into clonal cell lines.
Transfected HEK 293(ebna) cells are maintained in culture, harvested and membranes are prepared by differential centrifugation, following lysis of the cells in the presence of protease inhibitors, for use in receptor binding assays. Prostanoid receptor binding assays (for DP1, DP2 (CRTH2), EP1, EP2, EP3-III, EP4, FP, IP, and TP) are performed in 10 mM MES/KOH (pH 6.0) (EPs, FP and TP) or 10 mM HEPES/KOH (pH 7.4) (DPs and IP), containing 1 mM EDTA, 2.5-30 mM divalent cation and the appropriate radio-ligand. Synthetic compounds are added in DMSO which is kept constant at 1% (v/v) in all incubations. The reaction is initiated by addition of membrane protein. Non-specific binding is determined in the presence of 10 μM of the corresponding non-radioactive prostanoid. Incubations are conducted for 60-120 min at room temperature or 30° C. and terminated by rapid filtration. Specific binding is calculated by subtracting non specific binding from total binding. The residual specific binding at each ligand concentration is calculated and expressed as a function of ligand concentration in order to construct sigmoidal concentration-response curves. The binding affinity of the compounds is determined by calculating the equilibrium inhibition constant (Ki) from the equation Ki=InPt/1+[radio-ligand]/Kd where Kd is the equilibrium dissociation constant for the radio-ligand:receptor interaction and InPt is the inflection point of the dose-response curves.
Abramovitz, M. et al., Biochem, Biophys. Acta, 2000, 1483, pp. 285.

T1 sequence (P35408 whole entry): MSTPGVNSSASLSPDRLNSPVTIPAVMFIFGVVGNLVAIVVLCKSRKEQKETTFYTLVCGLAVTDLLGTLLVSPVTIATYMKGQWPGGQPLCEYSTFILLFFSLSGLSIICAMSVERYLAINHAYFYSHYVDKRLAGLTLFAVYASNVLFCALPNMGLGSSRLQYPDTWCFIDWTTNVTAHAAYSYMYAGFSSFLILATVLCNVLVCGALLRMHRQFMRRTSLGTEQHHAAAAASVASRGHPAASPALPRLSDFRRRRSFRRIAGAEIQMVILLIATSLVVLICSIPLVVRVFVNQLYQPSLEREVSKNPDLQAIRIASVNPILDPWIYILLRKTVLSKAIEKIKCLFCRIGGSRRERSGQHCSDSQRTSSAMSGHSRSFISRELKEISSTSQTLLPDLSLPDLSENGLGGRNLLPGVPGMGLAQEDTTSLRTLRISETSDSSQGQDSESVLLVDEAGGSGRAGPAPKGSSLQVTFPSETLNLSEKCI

Compound	IC50 [nM]
CN1CCc2c(n(-c3ccc(CCNC(=O)NS(=O)(=O)c4ccc(Cl)cc4)cc3)c3cc(C4CC4)ccc23)C1=O [Example 2-4, 4-chloro-N-[({2-[4-(7-cyclopropyl-2-methyl-1-oxo-1,2,3,4-tetrahydro-9H-beta-carbolin-9-yl)phenyl]ethyl}amino)carbonyl]benzenesulfonamide]	< 1
Cc1ccc(S(=O)(=O)NC(=O)NCCc2ccc(-n3c4c(c5c(C)cc(C)cc53)CCN(C)C4=O)cc2)cc1 [Example 1-2, 4-methyl-N-[({2-[4-(2,5,7-trimethyl-1-oxo-1,2,3,4-tetrahydro-9H-beta-carbolin-9-yl)phenyl]ethyl}amino)carbonyl]benzenesulfonamide]	< 1
CN1CCc2c(n(-c3ccc(CCNC(=O)NS(=O)(=O)c4ccc(Cl)cc4)cc3)c3cccc(Br)c23)C1=O [Example 1-14, N-[({2-[4-(5-bromo-2-methyl-1-oxo-1,2,3,4-tetrahydro-9H-beta-carbolin-9-yl)phenyl]ethyl}amino)carbonyl]-4-chlorobenzenesulfonamide]	< 1
CN1CCc2c(n(-c3ccc(CCNC(=O)NS(=O)(=O)c4ccc(Cl)cc4)cc3)c3ccc(-c4ccccn4)cc23)C1=O [Example 1-22, 4-chloro-N-[({2-[4-(2-methyl-1-oxo-6-pyridin-2-yl-1,2,3,4-tetrahydro-9H-beta-carbolin-9-yl)phenyl]ethyl}amino)carbonyl]benzenesulfonamide]	< 1
COc1cccc(OC)c1S(=O)(=O)NC(=O)NC1(Cc2ccc(-n3c4c(c5cc(-c6ccccc6)ccc53)CCN(C)C4=O)cc2)CC1 [Example 1-30, 2,6-dimethoxy-N-[({1-[4-(2-methyl-1-oxo-6-phenyl-1,2,3,4-tetrahydro-9H-beta-carbolin-9-yl)benzyl]cyclopropyl}amino)carbonyl]benzenesulfonamide]	< 1
CN1CCc2c(n(-c3ccc(CCNC(=O)NS(=O)(=O)c4ccc(Cl)cc4)cc3)c3cccc(C4CC4)c23)C1=O [Example 2-3, 4-chloro-N-[({2-[4-(5-cyclopropyl-2-methyl-1-oxo-1,2,3,4-tetrahydro-9H-beta-carbolin-9-yl)phenyl]ethyl}amino)carbonyl]benzenesulfonamide]	< 1

More lines, now with the values ahead:

IC50 [nM]	Compound
< 1	CN1CCc2c(n(-c3ccc(CC4(NC(=O)NS(=O)(=O)c5ccc(Cl)cc5)CC4)cc3)c3ccc(-c4ccn[nH]4)cc23)C1=O [Example 3-4, 4-chloro-N-{[(1-{4-[2-methyl-1-oxo-6-(1H-pyrazol-5-yl)-1,2,3,4-tetrahydro-9H-beta-carbolin-9-yl]benzyl}cyclopropyl)amino]carbonyl}benzenesulfonamide]
< 1	Cc1ccccc1-c1ccc2c(c1)c1c(n2-c2ccc(CC3(NC(=O)NS(=O)(=O)c4ccc(Cl)cc4)CC3)cc2)C(=O)N(C)CC1 [Example 1-27, 4-chloro-N-{[(1-{4-[2-methyl-6-(2-methylphenyl)-1-oxo-1,2,3,4-tetrahydro-9H-beta-carbolin-9-yl]benzyl}cyclopropyl)amino]carbonyl}benzenesulfonamide]
< 1	CN1CCc2c(n(-c3ccc(CC4(NC(=O)NS(=O)(=O)c5ccc(Cl)cc5)CC4)cc3)c3ccc(S(C)(=O)=O)cc23)C1=O [Example 1-34, 4-chloro-N-{[(1-{4-[2-methyl-6-(methylsulfonyl)-1-oxo-1,2,3,4-tetrahydro-9H-beta-carbolin-9-yl]benzyl}cyclopropyl)amino]carbonyl}benzenesulfonamide]

Same assay, conditions: column marked X when IC50 between 1 and 5; read-out: IC50 (nm) 1 < X < 5

IC50 [nM]	Compound
1 to 5	O=C(NCCc1ccc(-n2c3c(c4c(Cl)cc(Cl)cc42)CCN(CC2CC2)C3=O)cc1)NS(=O)(=O)c1ccc(Cl)cc1 [Example 1-7, 4-chloro-N-{[(2-{4-[5,7-dichloro-2-(cyclopropylmethyl)-1-oxo-1,2,3,4-tetrahydro-9H-beta-carbolin-9-yl]phenyl}ethyl)amino]carbonyl}benzenesulfonamide]

Same assay, conditions: radioligand displacement binding assay; read-out: IC50

IC50 [nM]	Compound
1 to 5	O=C(NCCc1ccc(-n2c3c(c4c(Cl)cc(Cl)cc42)CCN(CC2CC2)C3=O)cc1)NS(=O)(=O)c1ccc(Cl)cc1 [Example 1-7, 4-chloro-N-{[(2-{4-[5,7-dichloro-2-(cyclopropylmethyl)-1-oxo-1,2,3,4-tetrahydro-9H-beta-carbolin-9-yl]phenyl}ethyl)amino]carbonyl}benzenesulfonamide]
